In BindingDB's records for doi:10.3109/14756366.2011.650691 (University Roma Tre, 2013):

Target: Spermine oxidase (Homo sapiens, UniProt Q9NWM0)
Test: Enzyme Inhibition Assay
Settings: pH 8.3; 25 °C
Experimental: SMO activity was assayed at pH 8.3 (0.1 M Tris-HCl buffer) and 25°C using Spm as the substrate in the presence and absence of CHX.

Chain of Spermine oxidase (Q9NWM0 whole entry): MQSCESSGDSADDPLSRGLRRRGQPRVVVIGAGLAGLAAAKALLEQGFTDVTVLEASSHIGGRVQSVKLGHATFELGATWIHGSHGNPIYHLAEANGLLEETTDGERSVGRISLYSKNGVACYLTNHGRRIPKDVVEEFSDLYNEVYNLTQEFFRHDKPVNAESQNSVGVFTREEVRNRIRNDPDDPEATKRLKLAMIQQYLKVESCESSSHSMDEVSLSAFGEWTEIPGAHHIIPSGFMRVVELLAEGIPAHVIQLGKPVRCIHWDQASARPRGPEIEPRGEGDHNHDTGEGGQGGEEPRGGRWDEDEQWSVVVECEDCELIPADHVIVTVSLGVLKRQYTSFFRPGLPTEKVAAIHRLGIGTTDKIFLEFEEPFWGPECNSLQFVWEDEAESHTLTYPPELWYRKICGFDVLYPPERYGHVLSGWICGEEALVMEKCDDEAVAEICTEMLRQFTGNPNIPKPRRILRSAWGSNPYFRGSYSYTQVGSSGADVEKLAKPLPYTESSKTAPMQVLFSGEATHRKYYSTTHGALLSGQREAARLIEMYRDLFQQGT

Ki: 0.55 µM
SMILES: [H]/N=C(\N/C(=N/[H])NCCCCCCNC(=N)NC(=N)Nc1ccc(Cl)cc1)Nc1ccc(Cl)cc1 [Chlorhexidine (1)]
